Patent publication US5574061A, “Benzopyran derivative, process for producing the same and pharmaceutical composition containing the same” (priority 1990, dated 1996)
pIC50: −log10 of the molar value. Like-named read-outs stand apart in the source and are kept apart here.

Assays:
[1] = biological target: T1, ACAT enzyme (rabbit intestinal mucosa microsome) (Oryctolagus cuniculus, UniProt G1SFD9)
T1 sequence (G1SFD9 1-524): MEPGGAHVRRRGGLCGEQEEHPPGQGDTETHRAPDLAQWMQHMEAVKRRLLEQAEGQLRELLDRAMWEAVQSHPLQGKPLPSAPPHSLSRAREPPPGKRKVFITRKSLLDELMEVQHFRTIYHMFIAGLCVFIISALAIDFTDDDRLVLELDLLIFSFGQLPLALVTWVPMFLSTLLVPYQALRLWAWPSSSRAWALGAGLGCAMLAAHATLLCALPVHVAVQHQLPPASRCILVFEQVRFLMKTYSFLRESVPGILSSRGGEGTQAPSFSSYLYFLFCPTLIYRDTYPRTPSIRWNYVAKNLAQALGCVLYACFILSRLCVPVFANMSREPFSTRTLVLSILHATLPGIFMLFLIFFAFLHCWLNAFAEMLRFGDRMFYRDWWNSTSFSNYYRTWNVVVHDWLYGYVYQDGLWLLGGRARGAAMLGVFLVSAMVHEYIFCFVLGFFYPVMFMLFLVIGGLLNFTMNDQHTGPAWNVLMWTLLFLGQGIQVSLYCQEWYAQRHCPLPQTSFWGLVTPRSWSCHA
Procedure: Measurement of ACAT enzyme inhibitory activity (measurement of ACAT enzyme inhibitory activity of rabbit intestinal mucosa)
Preparation of a domestic rabbit intestinal mucosa microsome and measurement of the ACAT enzyme activity were conducted by slightly modifying a method established by Salone and Field (see Biochemica et Biophysica, vol. 712, 557 (1982). The domestic rabbit intestinal mucosa was homogenized by using a 40 mM phosphate buffer having a pH value of 7.4 (buffer A) containing 30 mM EDTA, 50 mM KCl and 0.1M sucrose and centrifuged at 10,000×g and a temperature of 4° C. for 30 min to provide a supernatant. The supernatant was further centrifuged at 105,000×g and a temperature of 4° C. for one hr to provide a precipitate. The precipitate was resuspended in the buffer A to provide a microsome fraction.
1% v/v of a dimethylsulfoxide solution of each specimen compound in a predetermined concentration was added to the buffer A containing 43 μM serum albumin and 0.5 mg/ml microsome fraction, and the mixture was heated at 37° C. for 5 min.
Then, 43 μM oleoyl CoA containing [1-^14 C] oleoyl CoA (3.7 kB) was added thereto, the mixture was heated at 37° C. for 10 min, and chloroform/methanol (2/1) containing 10 mg/ml cholesteryl oleate was added thereto to terminate the reaction.
0.111 kB of [3H] cholesteryl oleate and 1N hydrochloric acid were added thereto, and the mixture was stirred. The cholesteryl oleate extracted into the chloroform layer was isolated by a thin-layer chromatography, and the radioactivity was measured as the ACAT activity.

serum cholesterol = test: Percentage change of serum cholesterol in rats fed a feed enriched with cholesterol and fat; assay type: in vivo, male Wistar rats; details: Rattus norvegicus, po, 72 h, Wistar rats, vs control; for change in vivo at 10 mg/kg: 10 mg per kg orally once a day for three days; for change in vivo at 1 mg/kg: 1 mg/kg orally once a day for three days
Text: Percentage change of serum cholesterol
Male Wistar rats having a weight of 200 g were preliminarily bred for 7 days while they freely ingested a normal feed (CE-2 manufactured by CLEA Japan Inc.).
Thereafter, they were bred for 3 days while they freely ingested a feed enriched with cholesterol and fat (2% cholesterol, 1% cholic acid, 20% casein, 45% fine granulated sugar, 12% coconut oil, 4% KC flock, 1% mixed vitamin, 7% mixed mineral and 8% dried fish powder; a product of CLEA Japan Inc.). […] On the other hand, the excipient alone was administered to the control animals.
8 hr after the last administration, the test animals were fasted. 16 hr after the initiation of the fasting, these test animals were slaughtered. The serum cholesterol level was measured for each animal.
The results were compared with those of the control and are given as percentage serum cholesterol (%) in Table 3.
Percentage change of serum cholesterol (%)={(A-B)/B}×100
wherein A represents the total cholesterol level of serum in the group of rats to which the test compound was administered; and B represents the total cholesterol level of serum in the control group of rats.

| Structure (SMILES) | pIC50 [1] | further results |
| --- | --- | --- |
| CCCCCCCCCCCCNC(=O)Nc1c(C)ccc2c1OCCC2=O [Ex. 1, 1-Dodecyl-3-(7-methyl-4-chromanon-8-yl)urea] | 7.14 |  |
| CCCCCCCCCCC(C)(C)C(=O)Nc1c(OC)ccc2c1OCCC2=O [Ex. 2, N-(7-Methoxy-4-chromanon-8-yl)-2,2-dimethyldodecanamide] | 7.89 |  |
| CCCCCCCCCCCCNC(=O)Nc1c(OC)ccc2c1OCCC2(C)C [Ex. 3] | 6.47 |  |
| COc1ccc2c(c1NC(=O)NCC1(c3ccccc3)CCCC1)OCCC2(C)C [Ex. 4] | 6.16 |  |
| Cc1ccc2c(c1NC(=O)NCC1(c3ccccc3)CCCC1)OCCC2=O [Ex. 6] | 6.28 |  |
| COc1ccc(C2(CNC(=O)Nc3c(C)ccc4c3OCCC4=O)CCCC2)cc1 [Ex. 7] | 6.30 |  |
| CCCCCCCCCCCCNC(=O)Nc1c(OC)ccc2c(=O)ccoc12 [Ex. 10] | 6.48 |  |
| CCCCCCCCCCC1(C(=O)Nc2ccc(OC)c3c2OCCC3(C)C)CCCC1 [Ex. 13] | 5.92 |  |
| CCCCCCCCCCCCCCCC(=O)Nc1c(C)ccc2c1OCCC2=O [Ex. 18] | 8.11 |  |
| CCCCCCCCCCC(C)(C)C(=O)Nc1c(C)ccc2c1OCCC2=O [Ex. 19] | 6.68 | change in vivo at 10 mg/kg (serum cholesterol): -27% |
| CCCCCCCCCCC1(C(=O)Nc2c(C)ccc3c2OCCC3=O)CCCC1 [Ex. 20] | 6.77 | change in vivo at 10 mg/kg (serum cholesterol): -29% |
| Cc1ccc2c(c1NC(=O)C(C)(C)CCCCCc1ccccc1)OCCC2=O [Ex. 25] | 6.60 | change in vivo at 10 mg/kg (serum cholesterol): -32% |
| Cc1ccc2c(c1NC(=O)C(C)(C)CCCCOCCCC(C)C)OCCC2=O [Ex. 26] | 6.47 |  |
| Cc1ccc2c(c1NC(=O)C(C)(C)CCCCCCOCC(C)(C)C)OCCC2=O [Ex. 28] | 7.27 | change in vivo at 10 mg/kg (serum cholesterol): -31% |
| Cc1ccc2c(c1NC(=O)C(C)(C)CCCCCCOCCCC(C)C)OCCC2=O [Ex. 29] | 6.70 | change in vivo at 10 mg/kg (serum cholesterol): -22% |
| Cc1ccc2c(c1NC(=O)C(C)(C)CCCCOc1ccc(C(C)(C)C)cc1)OCCC2=O [Ex. 30] | 7.30 |  |
| Cc1ccc2c(c1NC(=O)C(C)(C)CCCCOc1ccc(Cl)cc1)OCCC2=O [Ex. 31] | 6.29 |  |

| Structure (SMILES) | pIC50 [1] | further results |
| --- | --- | --- |
| Cc1ccc2c(c1NC(=O)C(C)(C)CCCCCOc1ccc(Cl)cc1)OCCC2=O [Ex. 32] | 6.33 | change in vivo at 10 mg/kg (serum cholesterol): -33% |
| COc1ccc2c(c1NC(=O)C(C)(C)CCCCCCBr)OCCC2=O [Ex. 37, N-(7-methoxy-4-chromanon-8-yl)-2,2-dimethyl-8-bromooctaneamide] | 7.60 |  |
| COc1ccc2c(c1NC(=O)C(C)(C)CCCCCCc1ccccc1)OCCC2=O [Ex. 38] | 7.36 |  |
| COc1ccc2c(c1NC(=O)C(C)(C)CCCCCCOc1ccc(C)cc1)OCCC2=O [Ex. 40] | 7.37 |  |
| COc1ccc2c(c1NC(=O)C(C)(C)CCCCCOc1ccc(Cl)cc1)OCCC2=O [Ex. 41] | 7.28 | change in vivo at 1 mg/kg (serum cholesterol): -40% |
| COc1ccc2c(c1NC(=O)C(C)(C)CCCCCCOc1ccc(Cl)cc1)OCCC2=O [Ex. 42] | 7.19 | change in vivo at 1 mg/kg (serum cholesterol): -51% |
| Cc1cc(C)c2c(c1NC(=O)C(C)(C)CCCCCCOCC(C)C)OCCC2=O [Ex. 43] | 7.05 |  |
| Cc1cc(C)c2c(c1NC(=O)C(C)(C)CCCCCOc1ccc(Cl)cc1)OCCC2=O [Ex. 44] | 6.40 |  |
| COc1ccc2c(c1NC(=O)C(C)(C)CCCCCCOc1ccc(Cl)cc1)C(=O)CCO2 [Ex. 45] | 6.74 |  |
| CCCCCCCCCCC(C)(C)C(=O)Nc1c(Cl)ccc2c1OCCC2=O [Ex. 47] | 6.82 |  |
| CCCCCCCCCCC(C)(C)C(=O)Nc1c(OCCC)ccc2c1OCCC2=O [Ex. 48] | 7.85 |  |
| CCCCCCCCCCCCCCC(C)(C)C(=O)Nc1c(OC)ccc2c(=O)ccoc12 [Ex. 49] |  | pIC50 ([1]; read-out: ACAT Inhibitory Activity, IC50, rabbit intestinal mucosa microsome, [1-14C] oleoyl CoA, 37° C.): 7.28 |
| CCCCCCCCCCC1(C(=O)Nc2c(OC)ccc3c(=O)ccoc23)CCCC1 [Ex. 50] | 6.57 | change in vivo at 10 mg/kg (serum cholesterol): -27% |
| COc1ccc2c(=O)ccoc2c1NC(=O)C(C)(C)CCCCOc1ccc(C(C)(C)C)cc1 [Ex. 51] | 6.72 |  |
| COc1ccc2c(=O)ccoc2c1NC(=O)C(C)(C)CCCCCOc1ccc(Cl)cc1 [Ex. 52] | 6.80 | change in vivo at 3 mg/kg (serum cholesterol; 3 mg/kg orally once a day for three days): -17% |
| CCCCCCCCCCC(C)(C)C(=O)Nc1c(OC)ccc2c(=O)cc(CC)oc12 [Ex. 54] | 6.11 |  |
| COc1ccc2c(c1NC(=O)C(C)(C)CCCCCCOc1ccc(N(C)C)cc1)OCCC2=O [Ex. 55, N-(7-Methoxy-4-chromanon-8-yl)-2,2-dimethyl-8-p-dimethylaminophenoxyoctaneamide] | 7.09 |  |
